Laboratory results: US20160083424A1, “COMPOSITIONS AND METHODS FOR TARGETING ANTIGEN-PRESENTING CELLS” (OSLO UNIVERSITETSSYKEHUS HF, priority 2013, published 2016)
Where no end group is shown, it is not given here. siRNA = not defined here

What was measured:
iDCs [1] = test: Phage binding by flow cytometry; parameters: species or system human; details: binding of the phage clones to iDC, flow cytometry
Experimental: (§1) In brief, aliquots of DCs (10^5) were divided into conical 96-well micro-plate, washed with PBS buffer containing 1% FCS, and then incubated with the amplified phages (≈10^9 TU) for 30-60 min on ice. After washing, cells were incubated with biotinylated anti-M13 monoclonal antibody (Abcam) and then with phycoerythrin (PE)-conjugated streptavidin. Competition assays were performed by pre-incubating DCs with different amounts of the peptides for 15 min on ice. Then NW phage (≈10^9 TU) was added and samples incubated for additional 60 min on ice. After washing, bound phages were detected as indicated above. Samples were analyzed by FACSCanto II flow cytometry.

iDCs [2] = test: Binding and internalization of peptide-siRNA conjugates by microscopy; format: cell-based, human
Experimental: Then the medium was replaced with fresh medium and the cells were incubated with the peptides (5 μg/ml) for 60 min at 37° C. followed by 5 min incubation with Hoechst 33342 (Invitrogen Dynal AS, Oslo, Norway). The cells were washed twice with PBS and fixed with 4% paraformaldehyde for 15 min at 4° C. After washing, slides were covered with Dako cytomation fluorescent mounting medium and then images were taken with either epifluorescence (Leica DM RHC, Leica Microscopy As, Oslo, Norway) or confocal microscopy (Zeiss LSM 510, […]).
One of the major challenges to the clinical development of gene silencing by small interfering RNA (siRNA) is its effective delivery to target cells (Whitehead et al., Nat Rev Drug Discov 8, 129-138). Given the effective internalization of NW peptide by DCs, its potential to direct siRNAs to DCs was evaluated. First, a fluorescence labeled siRNA targeting mouse IL-10 was covalently conjugated to the NW-peptide (NW peptide with GGGSC (SEQ ID NO:43) linker) through a thiol linkage and then the binding of the conjugates to iDCs was investigated by epifluorescence microcopy. In contrast to free siRNA molecules, the peptide siRNA conjugates bound to DCs (FIG. 10A).

Monocytes = test: Competition of NW phage binding by NW peptide and its mutant peptides; parameters: species or system human; details: for competition with NW phage binding / peptide binding to monocytes: mutant peptides, four concentrations (0.4, 2, 8, 20 μM)
Experimental: as §1
To uncover the contribution of individual side chains and identify which amino acids are responsible for the NW peptide binding to monocytes and dendritic cells, alanine scanning was performed. Derivatives of the NW peptide were synthesized with exchange of each amino acid by alanine (FIG. 11A). These peptide derivatives were used to compete with the NW phage binding to monocytes. For each peptide, four concentrations were tested. Bound phage particles were detected with the use of biotin conjugated anti-M13 antibody and PE-conjugated streptavidin. The NW peptide (WT) competed effectively with the phage binding to monocytes with an IC50 of approximately 0.5 uM. The replacement of tryptophan (W) at position 2, 6, or 12 by a single alanine abolished the binding. Indeed, no significant competition with the phage binding was seen even at high peptide concentrations (C4=20 uM). Similarly, replacement of leucine (L) at position 4 or 7 by alanine inhibited the peptide binding (FIG. 11B).

[3] = tested on: autologous CD4 or CD8 T cells; test: Autologous stimulation of T lymphocytes by DCs exposed to targeted pp65 peptides, [3H] thymidine incorporation; format: cell-based, human; details: semi mDCs loaded at 4° C., HLA-A2+/CMV positive donors, 5 days
Experimental: (§2) Peptides at a concentration of 5 μg/ml were incubated with semi mDCs from HLA-A2/CMV-positive donors for 60 min at 4° C. Subsequently, they were washed to remove unbound peptides. Autologous stimulation was done in 96-well tissue culture plates in X-vivo 15 medium. Briefly, DCs were mixed with 10^5 autologous CD4 or CD8 T cells at a DC/lymphocytes ratios of 1/5 and 1/10 in a final volume of 250 μl. Cells were incubated for 5 days and then they were pulsed with [^3H] thymidine and harvested 16 h later. [^3H] thymidine incorporation was measured in a β-scintillation counter. In some experiments, the cells were cultured for 8 days and then stained with dextramers specific for pp65 NLVPMVATV (SEQ ID NO:19) epitope.
The capacity of the NW-pp65 fusion peptide (60-mer) to activate T cells from HLA-A2+/CMV positive donors was evaluated. It should be noted that the 48-mer pp65 peptide contains both MHC class I (e.g. NLVPMVATV) (SEQ ID NO:19) and class II (e.g. AGILARNLVPMVATV (SEQ ID NO:23), FFWDANDIYRI (SEQ ID NO:24)) epitopes, allowing the detection of CD4 and CD8 T-cell responses (24-26). […] All cultures were incubated at 37° C. for 5 days and T-cell activation was determined by measuring their proliferation potential (FIG. 6A). […]

[4] = tested on: CD8 T cells specific for the NLVPMVATV epitope; test: Dextramer staining of CD8 T cells after stimulation with peptide-exposed DCs; format: cell-based, human; details: DC-stimulated CD8 T cells, CMV positive donors, equal molar concentrations, n=3
Experimental: as §2
(§3) Dextramers with CMV (NLVPMVATV) (SEQ ID NO:19) and HIV (ILKEPVHGV) (SEQ ID NO:22) HLA-A2 specific antigens were obtained from Immudex (Copenhagen, Denmark). Antibodies against human CD8, CD19 and CD56 were obtained from eBioscience (San Diego, Calif., USA). […] Cells were washed and resuspended in SB containing 1% paraformaldehyd and analyzed on a BD SLR II flow cytometer. The data were analyzed using FCS Express (De Novo Software, Los Angeles, Calif., USA).

[5] = tested on: pp65-specific naïve T cells; test: Induction of CMV-pp65-specific T cells from naive donor repertoire, dextramer staining; format: cell-based, human; details: CD45RO-depleted PBMCs, HLA-A2+/CMV negative donors, IL-7, representative example
Experimental: (§4) PBMC from HLA-A2/CMV+ donors were thawed, washed and then incubated with the peptides (5 μg/ml) for 60 min at 4° C. Subsequently, the cells were washed twice and then plated at 2×10^5 cells per well in 96-well tissue culture plate. Cells were cultured for 5 days and subsequently they were pulsed with [^3H] thymidine and harvested 16 h later. In some experiments, the cells were cultured for 12 days and then stained with dextramers specific for pp65 NLVPMVATV (SEQ ID NO:19) epitope. Monocyte-depleted PBMCs were also used. To analyze primary immune responses against pp65 protein, PBMCs from HLA-A2+/CMV-negative donors were used. Autologous DCs were incubated with either NW-pp65 or GA-pp65 peptide (5 μg/ml) at 4° C. for 1 h, followed by three washes to remove unbound peptides. Subsequently, the cells were incubated with CD45RO-depleted PBMC (responder cells) and co-cultured for 10 days at ratio 1/10 (DC to responder cells) in X-vivo 15 medium supplemented with 10 ng/ml human IL-7 for 10 days. […]
as §3, with “Denmark).” for “Denmark). Antibodies against human CD8, CD19 and CD56 were obtained from eBioscience (San Diego, Calif., USA).”, “USA). […]” for “USA).”

PBMCs = test: Autologous stimulation of PBMCs with pp65 targeted peptides, [3H] thymidine incorporation; format: cell-based, human; details: whole PBMCs, peptides at 4° C., 5 days at 37° C.
Experimental: as §4, with “days. After 2 rounds of stimulation (8 days each) with autologous DC loaded with peptides, the cells were stained with dextramers specific for pp65 NLVPMVATV (SEQ ID NO:19) epitope. To test spontaneous uptake of peptides by DCs, PBMCs from HLA-A2+/CMV positive donors were incubated at 37° C. with various concentrations of untargeted or targeted pp65 peptide for 90 min.” for “days.”

[6] = tested on: CD8 T cells against NLVPMVATV epitope; test: Dextramer staining of CD8 T cells after PBMC stimulation with pp65 peptides; format: cell-based, human
Experimental: PBMC from HLA-A2/CMV+ donors were thawed, washed and then incubated with the peptides (5 μg/ml) for 60 min at 4° C. Subsequently, the cells were washed twice and then plated at 2×10^5 cells per well in 96-well tissue culture plate. Cells were cultured for 5 days and subsequently they were pulsed with [^3H] thymidine and harvested 16 h later. In some experiments, the cells were cultured for 12 days and then stained with dextramers specific for pp65 NLVPMVATV (SEQ ID NO:19) epitope. Monocyte-depleted PBMCs were also used. To analyze primary immune responses against pp65 protein, PBMCs from HLA-A2+/CMV-negative donors were used. Autologous DCs were incubated with either NW-pp65 or GA-pp65 peptide (5 μg/ml) at 4° C. for 1 h, followed by three washes to remove unbound peptides. Subsequently, the cells were incubated with CD45RO-depleted PBMC (responder cells) and co-cultured for 10 days at ratio 1/10 (DC to responder cells) in X-vivo 15 medium supplemented with 10 ng/ml human IL-7 for 10 days. After 2 rounds of stimulation (8 days each) with autologous DC loaded with peptides, the cells were stained with dextramers specific for pp65 NLVPMVATV (SEQ ID NO:19) epitope. To test spontaneous uptake of peptides by DCs, PBMCs from HLA-A2+/CMV positive donors were incubated at 37° C. with various concentrations of untargeted or targeted pp65 peptide for 90 min. Subsequently, the cells were washed to remove unbound peptides and cultured at 37° C. for 12 days and then stained with dextramers specific for pp65 NLVPMVATV (SEQ ID NO:19) epitope.
Dextramers with CMV (NLVPMVATV) (SEQ ID NO:19) and HIV (ILKEPVHGV) (SEQ ID NO:22) HLA-A2 specific antigens were obtained from Immudex (Copenhagen, Denmark). Antibodies against human CD8, CD19 and CD56 were obtained from eBioscience (San Diego, Calif., USA). Briefly, around 10^6 cells were washed and resuspended in 50 μl staining buffer SB (PBS with 0.1% human serum albumin and 0.1% NaN3) containing 1 mg/ml aggregated α-globulin and then stained with dextramer for 10 min in the dark at room temperature. Subsequently, antibodies against CD8, CD19 and CD56 were added and incubation continued for additional 20 min. Cells were washed and resuspended in SB containing 1% paraformaldehyd and analyzed on a BD SLR II flow cytometer. The data were analyzed using FCS Express (De Novo Software, Los Angeles, Calif., USA).
Monocytes have the capacity to differentiate into macrophages or inflammatory DCs in-vitro and in-vivo (Auffray et al., (2009) Annu Rev. Immunol. 27, 669-92). Given that the NW peptide bound to blood monocytes, it was investigated whether this binding affects T-cell activation. Therefore, proliferation assays were performed with whole PBMCs. […]

[7] = tested on: PBMC cultures from CMV-positive donors; test: IFN-γ production in PBMC cultures; format: cell-based, human; details: PBMCs from HLA-A2+/CMV positive
Experimental: (A) PBMCs from HLA-A2+/CMV-positive donors were incubated with the indicated fusion peptides for 60 min at 4° C., washed and then incubated at 37° C. for […]. T-cell proliferation was monitored by thymidine incorporation. (B) Dextramer staining of CD8 T cells against NLVPMVATV (SEQ ID NO:19) epitope. (C) As in A and B, but monocyte-depleted PBMCs were used. (D) INF-γ and IL-10 levels in PBMC culture supernatants determined by ELISA.
Next, the immunostimulatory potential of the NW-pp65 fusion peptide was evaluated by assessing its ability to stimulate the overall IFN-γ and IL-10 production in PBMC cultures from CMV-positive donors (FIG. 8D).

iDCs [8] = test: Peptide binding by flow cytometry; parameters: species or system human
Experimental: The cells were seeded onto 24-well plate (3×10^5/well/0.5 ml) in X-vivo 15 medium and incubated overnight at 37° C. Subsequently, they were incubated with 6IAF-conjugated peptides (5 μg/ml) for 30 min at 37° C., gently scraped, washed 3 times and then analyzed by flow cytometry. Binding was also performed at 4° C.

iDC = test: Competition of NW phage binding by synthetic peptides; parameters: species or system human
Experimental: as §1
To further investigate the importance of the NW peptide on phage binding, competition experiments were performed using synthetic peptides.

[9] = target: NW peptide receptor (human); test: competition with NW phage binding to monocytes, flow cytometry

QLPRTAL [DC10]
Binding (iDCs [1]): +++ (binding <80%: +++)

peptide siRNA conjugates: fluorescence labeled siRNA targeting mouse IL-10 covalently conjugated to NW peptide with GGGSC linker through a thiol linkage (NWYLPWLGTNDWGGGSC(siRNA); not fully specified; reading uncertain)
intracellular delivery of peptide-siRNA conjugates (iDCs [2]; confocal microscopy): confirmed the intracellular delivery | binding of peptide siRNA conjugates to DCs (iDCs [2]; epifluorescence microscopy, iDCs): bound to DCs

GETRAPL [DC19]
Binding (iDCs [1]): +++ (binding <80%: +++)

Deletion of N10D11: NW peptide with N10 and D11 deleted; likely NWYLPWLGTW (SEQ ID NO:38)
reduction in IC50 relative to NW peptide (Monocytes; monocytes): approximately 20 fold | competition with NW phage binding / peptide binding to monocytes (Monocytes): reduced the binding

QWELPWLMQPPL [DC6]
Binding (iDCs [1]): ++++ (Binding >80-100%: ++++)

GALDTTHHRPWTGCFTWPPWQAGILARNLVPMVATVQGQNLKYQEFFWDANDIYRIFAEL [GA-60-mer, 48-mer CMV pp65 peptide fused to control peptide, reference compound]
T-cell activation (proliferation, [3H]-thymidine) [3]: no significant effect | dextramer-positive CD8 T cells specific for NLVPMVATV [4]: 0.51% | pp65-specific naïve T cells (dextramer staining) [5]: 0.01% | T-cell proliferation ([3H]-thymidine) (PBMCs): did not | CTL response (dextramer staining) ([6]; monocyte-depleted PBMCs): 0.53% | CTL response (dextramer staining) ([6]; whole PBMCs, n=3): 0.45% | proportion of CD8 and CD4 T cells that produced IFN-γ [7]: very low response

N10D11 double mutant: NW peptide with asparagine 10 and aspartic acid 11 both replaced by alanine (NWYLPWLGTAAW)
mean fluorescence of bound phage (Monocytes; at C3 concentration (8 μM), unstained cells 250): ~250 | competition with NW phage binding / peptide binding to monocytes (Monocytes): effectively competed

GALDTTHHRPWTC [control peptide, irrelevant control peptide, reference compound]
binding of 6-IAF-conjugated peptides to iDCs (iDCs [8]; 4° C. and 37° C.): no significant binding | inhibition of the phage binding to iDC by synthetic peptides (iDC): but not an irrelevant control peptide, effectively inhibited

SPGLSLVSHMQT [DC13]
Binding (iDCs [1]): +++ (binding <80%: +++)

NWYLPWLGTNDWAGILARNLVPMVATVQGQNLC [NW-33-mer, CMV pp65 peptide fused to NW peptide]
binding of 6IAF-conjugated pp65 fusion peptides to DCs (iDCs [8]; iDCs): bound to iDCs

NWYGAGAGTNDW [NW-mutant, NW-peptide lacking the motif LPWL]
inhibition of the phage binding to iDC by synthetic peptides (iDC): failed to reduce binding

NWYLPWLGTNDWC (also: carries 6-iodoacetamidofluorescein in direct binding assays) [NW peptide]
IC50 [9]: 500 nM
